# According to patent US20090156598A1, “Imidazolopyrimidine modulators of TRPV1” (priority 2007, published 2009):
# Columns and labels:
# rat TRPV1 = target: T1, rat TRPV1 (Rattus norvegicus, UniProt O35433); assay: Functional assay: block of capsaicin-induced Ca2+ influx, rat assay (FLIPR, rTRPV1/HEK293); type: cell-based; conditions: rTRPV1/HEK293 cells, capsaicin challenge, mean; > value = solubility limit in assay medium
# T1 construct: expressed in transfected cells; host or cells: HEK293 (rTRPV1/HEK293), geneticin selection
# T1 sequence (O35433 whole entry): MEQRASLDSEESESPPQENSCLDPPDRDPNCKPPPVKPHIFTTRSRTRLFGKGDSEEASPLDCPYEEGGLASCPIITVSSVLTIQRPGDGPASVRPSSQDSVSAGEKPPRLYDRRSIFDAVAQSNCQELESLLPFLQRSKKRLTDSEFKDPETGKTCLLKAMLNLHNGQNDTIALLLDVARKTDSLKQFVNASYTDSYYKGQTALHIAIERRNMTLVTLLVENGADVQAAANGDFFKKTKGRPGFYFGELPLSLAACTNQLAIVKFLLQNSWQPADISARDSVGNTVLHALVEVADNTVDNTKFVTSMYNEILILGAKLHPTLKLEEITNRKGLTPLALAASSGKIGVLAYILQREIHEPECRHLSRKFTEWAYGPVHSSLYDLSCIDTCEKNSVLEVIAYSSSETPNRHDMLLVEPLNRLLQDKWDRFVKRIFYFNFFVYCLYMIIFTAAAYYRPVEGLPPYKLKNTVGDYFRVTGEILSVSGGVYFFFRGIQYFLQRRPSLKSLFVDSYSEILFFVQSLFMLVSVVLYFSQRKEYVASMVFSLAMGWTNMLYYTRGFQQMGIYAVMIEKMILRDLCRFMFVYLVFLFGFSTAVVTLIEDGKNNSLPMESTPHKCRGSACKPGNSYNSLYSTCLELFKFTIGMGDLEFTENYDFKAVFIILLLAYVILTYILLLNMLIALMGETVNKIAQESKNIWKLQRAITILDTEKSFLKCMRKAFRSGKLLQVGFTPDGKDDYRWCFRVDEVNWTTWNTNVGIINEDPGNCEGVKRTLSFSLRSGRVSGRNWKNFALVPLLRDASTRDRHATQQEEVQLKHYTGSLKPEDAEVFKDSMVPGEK
# Method: (§1) Functional assay: block of capsaicin-induced Ca^2+ influx
# (§2) HEK293 cells were transfected with human TRPV1 cloned in pcDNA3.1zeo(+) using the Effectene non-liposomal lipid based transfection kit (Qiagen) (hTRPV1/HEK293). hTRPV1/HEK293 cells were routinely grown as monolayers under selection in zeocin (200 μg/mL; Invitrogen) in Dulbecco's Modified Eagle Medium (DMEM, Gibco BRL) supplemented with 10% fetal bovine serum, and penicillin/streptomycin (50 units/mL) in 5% CO2 at 37° C. Cells were passaged frequently, every 3-5 days, to avoid overgrowth, depletion of essential medium components, or acidic medium exposure. Cells were passaged using a brief wash in 0.05% trypsin with 1 mM EDTA, followed by dissociation in divalent-free phosphate-buffered saline (Hyclone #SH30028.02). Dissociated cells were seeded onto poly-D-lysine coated black-walled 96-well plates (Biocoat; Becton Dickinson #354640) at about 40,000 cells per well and grown for approximately 1 day in culture medium to near confluency. The assay buffer was composed of 130 mM NaCl, 2 mM KCl, 2 mM MgCl2, 10 mM HEPES, 5 mM glucose, and either 2 mM or 20 μM CaCl2. On the day of the experiment, the culture medium was replaced with 2 mM calcium assay buffer using an automated plate washer (EL×405; Biotek, VT). The cells were incubated in 100 μL/well Fluo-3/AM (2 μM; TEFLabs #0116) with Pluronic F127 (100 μg/mL; Sigma #P2443) for 1 h at rt in the dark. After loading the cells, the dye solution was replaced with 50 μL/well of 20 μM calcium assay buffer using the EL×405 plate washer. Test compounds (50 μL/well) were added to the plate and incubated for 30 min. Intracellular Ca^2+ levels were subsequently assayed using a Fluorometric Imaging Plate Reader (FLIPR™ instrument, Molecular Devices, CA) to simultaneously monitor Fluo-3 fluorescence in all wells (λexcitation=488 nm, λemission=540 nm) during challenge with agonist (capsaicin). The IC50 values were determined. Cells were challenged with 150 nM capsaicin and the fluorescence counts were captured following agonist addition at a sampling rate of 0.33 Hz. The contents of the wells were mixed 3 times (40 μL mix volume) immediately after the additions were made. Concentration-dependence of block was determined by exposing each well of cells in duplicate rows of a 96-well plate to a serial dilution of test compound. The concentration series usually started at 10 μM with a three-fold serial decrement in concentration. The magnitude of the capsaicin response was determined by measuring the change in fluo3 fluorescence before and 100 seconds after the addition of the agonist. Data were analyzed using a non-linear regression program (Origin; OriginLab, MA).
# This assay was performed similarly to the human assay described above, but using HEK293 cells transfected with rat TRPV1 (rTRPV1/HEK293).
# (§3) IC50 values shown are the average (mean) of the results obtained. Where activity is shown as greater than (>) a particular value, the value is the solubility limit of the compound in the assay medium.
# human TRPV1 = target: T2, human TRPV1 (Homo sapiens, UniProt Q8NER1); assay: Functional assay: block of capsaicin-induced Ca2+ influx, human assay (FLIPR, hTRPV1/HEK293); type: cell-based; conditions: hTRPV1/HEK293 cells, 150 nM capsaicin challenge, mean; > value = solubility limit in assay medium
# T2 construct: expressed in transfected cells; host or cells: HEK293 (hTRPV1/HEK293), zeocin selection
# T2 sequence (Q8NER1 whole entry): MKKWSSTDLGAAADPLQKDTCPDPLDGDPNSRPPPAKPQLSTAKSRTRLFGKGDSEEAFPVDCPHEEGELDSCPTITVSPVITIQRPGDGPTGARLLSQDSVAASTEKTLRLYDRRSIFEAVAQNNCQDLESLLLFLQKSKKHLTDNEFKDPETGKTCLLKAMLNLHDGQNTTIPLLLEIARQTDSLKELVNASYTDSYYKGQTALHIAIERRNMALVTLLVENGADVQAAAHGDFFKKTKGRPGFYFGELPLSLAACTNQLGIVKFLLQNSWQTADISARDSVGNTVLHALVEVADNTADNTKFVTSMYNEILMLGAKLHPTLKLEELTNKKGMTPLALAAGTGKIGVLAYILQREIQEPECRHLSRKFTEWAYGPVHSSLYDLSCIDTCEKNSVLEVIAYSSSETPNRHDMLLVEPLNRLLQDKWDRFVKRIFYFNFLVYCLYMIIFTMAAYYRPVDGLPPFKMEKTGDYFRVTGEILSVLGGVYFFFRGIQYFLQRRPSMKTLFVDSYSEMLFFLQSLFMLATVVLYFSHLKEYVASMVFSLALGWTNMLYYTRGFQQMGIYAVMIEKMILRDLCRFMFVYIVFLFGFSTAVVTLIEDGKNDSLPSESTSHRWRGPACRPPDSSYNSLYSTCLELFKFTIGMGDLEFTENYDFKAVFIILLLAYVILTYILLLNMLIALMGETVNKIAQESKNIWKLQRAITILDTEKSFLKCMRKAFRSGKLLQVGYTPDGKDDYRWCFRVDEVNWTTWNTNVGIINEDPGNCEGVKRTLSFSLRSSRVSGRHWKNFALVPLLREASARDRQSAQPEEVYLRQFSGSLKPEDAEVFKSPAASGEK
# Method: as §1, §2, §3
IC50 (rat TRPV1),IC50 (human TRPV1),SMILES
0.15 nM,2.3 nM,"CC(C)(C)c1ccc(Nc2ncnc3[nH]c(Nc4c(Cl)cccc4Cl)nc23)cc1 [Example 3, N^6-(4-tert-Butyl-phenyl)-N^8-(2,6-dichloro-phenyl)-9H-purine-6,8-diamine]"
3 nM,29 nM,"Cc1nc(Nc2ccc(C(F)(F)F)cc2)c2nc(Nc3c(Cl)cccc3Cl)[nH]c2n1 [Example 6, N^8-(2,6-Dichloro-phenyl)-2-methyl-N^6-(4-trifluoromethyl-phenyl)-9H-purine-6,8-diamine]"
1750 nM,3390 nM,"Clc1cccc(Cl)c1Nc1nc2c(Nc3ccccc3)ncnc2[nH]1 [Example 4, N^8-(2,6-Dichloro-phenyl)-N^6-phenyl-9H-purine-6,8-diamine]"
1050 nM,2300 nM,"FC(F)(F)c1ccc(Nc2ncnc3[nH]c(Nc4ccccc4C(F)(F)F)nc23)cn1 [Example 9, N^8-(2-Trifluoromethyl-phenyl)-N^6-(6-trifluoromethyl-pyridin-3-yl)-9H-purine-6,8-diamine]"
1010 nM,3070 nM,"FC(F)(F)c1ccc(Nc2ncnc3[nH]c(Nc4ccccc4C(F)(F)F)nc23)cc1 [Example 8, N^6-(4-Trifluoromethyl-phenyl)-N^8-(2-trifluoromethyl-phenyl)-9H-purine-6,8-diamine]"
> 6670 nM,> 6670 nM,"FC(F)(F)c1ccc(Nc2ncnc3[nH]c(Nc4ccccc4Cl)nc23)cc1 [Example 7, N^8-(2-Chloro-phenyl)-N^6-(4-trifluoromethyl-phenyl)-9H-purine-6,8-diamine]"
18 nM,170 nM,"CS(=O)(=O)c1ccc(Nc2ncnc3[nH]c(Nc4c(Cl)cccc4Cl)nc23)cc1 [Example 5, N^8-(2,6-Dichloro-phenyl)-N^6-(4-methanesulfonyl-phenyl)-9H-purine-6,8-diamine]"
1130 nM,1460 nM,"Cn1c(Nc2c(Cl)cccc2Cl)nc2c(Nc3ccc(C(F)(F)F)cc3)ncnc21 [Example 10, N^8-(2,6-Dichloro-phenyl)-9-methyl-N^6-(4-trifluoromethyl-phenyl)-9H-purine-6,8-diamine]"
4.9 nM,17 nM,"FC(F)(F)c1ccc(Nc2ncnc3[nH]c(Nc4c(Cl)cccc4Cl)nc23)cc1 [Example 1, N^8-(2,6-Dichloro-phenyl)-N^6-(4-trifluoromethyl-phenyl)-9H-purine-6,8-diamine]"
19 nM,–,"FC(F)(F)c1ccc(Nc2ncnc3[nH]c(Nc4c(Cl)cccc4Cl)nc23)cn1 [Example 2, N^8-(2,6-Dichloro-phenyl)-N^6-(6-trifluoromethyl-pyridin-3-yl)-9H-purine-6,8-diamine]"
